#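 Compound exposure: 48 hours, 5 concentrations, 96-well plates. Abbreviation: GI50, concentration required for 50% inhibition of growth.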 Calls of active or inactive are those of the source. Rule as the data show it: active = GI50 up to about 1.1 µM and inactive = higher.
# Assays:
# Test in all cases: NCI anticancer screen, dose series, 48 h
# NCI-H23 = system: NCI-H23
# Hs-578T = system: Hs-578T
# NCI-H460 = system: NCI-H460
# Malme-3M = system: Malme-3M
# ACHN = system: ACHN
# HCT-15 = system: HCT-15
# KM12 = system: KM12
# OVCAR-8 = system: OVCAR-8
# CAKI-1 = system: CAKI-1
# MDA-MB-435 = system: MDA-MB-435
# A498 = system: A498
# M14 = system: M14
# PC-3 = system: PC-3
# UO-31 = system: UO-31
# SK-OV-3 = system: SK-OV-3
# OVCAR-5 = system: OVCAR-5
# HOP-92 = system: HOP-92
# SF-295 = system: SF-295
# SNB-19 = system: SNB-19
# 786-0 = system: 786-0
# SF-268 = system: SF-268
# SK-MEL-2 = system: SK-MEL-2
# LOX IMVI = system: LOX IMVI
# SNB-75 = system: SNB-75
# COLO 205 = system: COLO 205
# HT-29 = system: HT-29
# SW-620 = system: SW-620
# MDA-N = system: MDA-N
# RXF 393 = system: RXF 393
# HCC 2998 = system: HCC 2998
# SF-539 = system: SF-539
# HCT-116 = system: HCT-116
# SK-MEL-28 = system: SK-MEL-28
# NCI/ADR-RES = system: NCI/ADR-RES
# RPMI-8226 = system: RPMI-8226
# SK-MEL-5 = system: SK-MEL-5
# SR = system: SR
# OVCAR-4 = system: OVCAR-4
# MCF7 = system: MCF7
# UACC-62 = system: UACC-62
# HOP-62 = system: HOP-62
# NCI-H522 = system: NCI-H522
# NCI-H226 = system: NCI-H226
# IGROV-1 = system: IGROV-1
# U-251 = system: U-251
# A549 = system: A549
# BT-549 = system: BT-549
# T47D = system: T47D
# OVCAR-3 = system: OVCAR-3
# TK-10 = system: TK-10
# DU-145 = system: DU-145
# SN12C = system: SN12C
# MDA-MB-231 = system: MDA-MB-231
# K562 = system: K562
# MOLT-4 = system: MOLT-4
# UACC-257 = system: UACC-257
# EKVX = system: EKVX
# HL-60 = system: HL-60
# CCRF-CEM = system: CCRF-CEM
structure (smiles),measurement,setting,value
Oc1cccnc1CN1CCCCC1,GI50,NCI-H23,> 100 µM (inactive)
same,GI50,Hs-578T,> 100 µM (inactive)
same,GI50,NCI-H460,> 100 µM (inactive)
same,GI50,Malme-3M,> 100 µM (inactive)
same,GI50,ACHN,> 100 µM (inactive)
same,GI50,HCT-15,> 100 µM
same,GI50,KM12,> 100 µM (inactive)
same,GI50,OVCAR-8,> 100 µM (inactive)
same,GI50,CAKI-1,> 100 µM (inactive)
same,GI50,MDA-MB-435,> 100 µM (inactive)
same,GI50,A498,> 100 µM (inactive)
same,GI50,M14,> 100 µM (inactive)
same,GI50,PC-3,> 100 µM (inactive)
same,GI50,UO-31,> 100 µM (inactive)
same,GI50,SK-OV-3,> 100 µM (inactive)
same,GI50,OVCAR-5,> 100 µM (inactive)
same,GI50,HOP-92,> 100 µM (inactive)
same,GI50,SF-295,> 100 µM (inactive)
same,GI50,SNB-19,> 100 µM (inactive)
same,GI50,786-0,> 100 µM (inactive)
same,GI50,SF-268,> 100 µM (inactive)
same,GI50,SK-MEL-2,> 100 µM (inactive)
same,GI50,LOX IMVI,> 100 µM (inactive)
same,GI50,SNB-75,> 100 µM (inactive)
same,GI50,COLO 205,> 100 µM (inactive)
same,GI50,HT-29,> 100 µM (inactive)
same,GI50,SW-620,> 100 µM (inactive)
same,GI50,MDA-N,> 100 µM (inactive)
same,GI50,RXF 393,> 100 µM (inactive)
same,GI50,HCC 2998,> 100 µM (inactive)
same,GI50,SF-539,> 100 µM (inactive)
same,GI50,HCT-116,> 100 µM (inactive)
same,GI50,SK-MEL-28,> 100 µM (inactive)
same,GI50,NCI/ADR-RES,> 100 µM (inactive)
same,GI50,RPMI-8226,> 100 µM (inactive)
same,GI50,SK-MEL-5,> 100 µM (inactive)
same,GI50,SR,> 100 µM (inactive)
same,GI50,OVCAR-4,> 100 µM (inactive)
same,GI50,MCF7,> 100 µM (inactive)
same,GI50,UACC-62,> 100 µM (inactive)
same,GI50,HOP-62,> 100 µM (inactive)
same,GI50,NCI-H522,> 100 µM (inactive)
same,GI50,NCI-H226,> 100 µM (inactive)
same,GI50,IGROV-1,> 100 µM (inactive)
same,GI50,U-251,> 100 µM (inactive)
same,GI50,A549,> 100 µM (inactive)
same,GI50,BT-549,> 100 µM (inactive)
same,GI50,T47D,> 100 µM (inactive)
same,GI50,OVCAR-3,> 100 µM (inactive)
same,GI50,TK-10,> 100 µM (inactive)
same,GI50,DU-145,> 100 µM (inactive)
same,GI50,SN12C,> 100 µM (inactive)
same,GI50,MDA-MB-231,> 100 µM (inactive)
same,GI50,K562,> 100 µM (inactive)
same,GI50,MOLT-4,> 100 µM (inactive)
same,GI50,UACC-257,> 100 µM (inactive)
same,GI50,EKVX,> 100 µM (inactive)
Nc1nc(NCCCO)cc(=O)[nH]1,GI50,NCI-H23,> 100 µM (inactive)
same,GI50,Hs-578T,> 100 µM (inactive)
same,GI50,NCI-H460,> 100 µM (inactive)
same,GI50,Malme-3M,> 100 µM (inactive)
same,GI50,ACHN,> 100 µM (inactive)
same,GI50,HCT-15,> 100 µM
same,GI50,KM12,> 100 µM (inactive)
same,GI50,OVCAR-8,> 100 µM (inactive)
same,GI50,CAKI-1,> 100 µM (inactive)
same,GI50,MDA-MB-435,> 100 µM (inactive)
same,GI50,A498,> 100 µM (inactive)
same,GI50,M14,> 100 µM (inactive)
same,GI50,PC-3,> 100 µM (inactive)
same,GI50,UO-31,> 100 µM (inactive)
same,GI50,SK-OV-3,> 100 µM (inactive)
same,GI50,OVCAR-5,> 100 µM (inactive)
same,GI50,HOP-92,> 100 µM (inactive)
same,GI50,SF-295,> 100 µM (inactive)
same,GI50,SNB-19,> 100 µM (inactive)
same,GI50,786-0,> 100 µM (inactive)
same,GI50,SF-268,> 100 µM (inactive)
same,GI50,SK-MEL-2,> 100 µM (inactive)
same,GI50,LOX IMVI,> 100 µM (inactive)
same,GI50,SNB-75,> 100 µM (inactive)
same,GI50,COLO 205,> 100 µM (inactive)
same,GI50,HT-29,> 100 µM (inactive)
same,GI50,SW-620,> 100 µM (inactive)
same,GI50,MDA-N,> 100 µM (inactive)
same,GI50,RXF 393,> 100 µM (inactive)
same,GI50,HCC 2998,> 100 µM (inactive)
same,GI50,HL-60,> 100 µM (inactive)
same,GI50,HCT-116,> 100 µM (inactive)
same,GI50,SK-MEL-28,> 100 µM (inactive)
same,GI50,NCI/ADR-RES,> 100 µM (inactive)
same,GI50,RPMI-8226,> 100 µM (inactive)
same,GI50,SK-MEL-5,> 100 µM (inactive)
same,GI50,SR,> 100 µM (inactive)
same,GI50,OVCAR-4,> 100 µM (inactive)
same,GI50,MCF7,> 100 µM (inactive)
same,GI50,UACC-62,> 100 µM (inactive)
same,GI50,HOP-62,> 100 µM (inactive)
same,GI50,NCI-H522,> 100 µM (inactive)
same,GI50,CCRF-CEM,> 100 µM (inactive)
same,GI50,NCI-H226,> 100 µM (inactive)
same,GI50,IGROV-1,> 100 µM (inactive)
same,GI50,U-251,> 100 µM (inactive)
same,GI50,A549,> 100 µM (inactive)
same,GI50,BT-549,> 100 µM (inactive)
same,GI50,T47D,> 100 µM (inactive)
same,GI50,OVCAR-3,> 100 µM (inactive)
same,GI50,DU-145,> 100 µM (inactive)
same,GI50,SN12C,> 100 µM (inactive)
same,GI50,MDA-MB-231,> 100 µM (inactive)
same,GI50,K562,> 100 µM (inactive)
same,GI50,MOLT-4,> 100 µM (inactive)
same,GI50,UACC-257,> 100 µM (inactive)
same,GI50,EKVX,> 100 µM (inactive)

# Source: ChEMBL document CHEMBL1201862, “PubChem BioAssay data set” (2004)
